US6770660B2, “Method for inhibiting platelet aggregation” (Artery LLC, priority 2002, dated 2004)
Where a name gives a salt, the structure may show the parent alone. Read-outs that look alike come from different tables or passages of the source.

Legend:
platelet aggregation [1] = settings: patients, 15 through 60 minutes, 20 μM adenosine diphosphate, monohydrochloride
Method: (§1) Patients were treated with a 20 μg/kg bolus of tirofiban hydrochloride followed by a 0.15 μg/kg/min infusion for 18-24 hours or a 25 μg/kg bolus followed by the same infusion. Enrollment of subjects in the panel with the 20 μg/kg bolus (n=15/panel) was completed and the clinical effects and pharmacodynamic properties were evaluated before subjects were enrolled in the panel with the 25 μg/kg bolus. Patients were treated with aspirin (325 mg before the procedure and daily) and unfractionated heparin (target activated clotting time 250 seconds). Clopidogrel (300 mg and then 75 mg daily)(commercially available as PLAVIX®) was administered at least 45 minutes after the start of tirofiban hydrochloride. All other medications were administered at the discretion of the attending cardiologist. Sheath removal was performed when the activated clotting time was less than 175 seconds unless a closure device was used.

[2] = for major bleeding episodes: patients
Method: as §1, with “used. […] The occurrence of 3 major bleeding episodes (as defined by the American College of Cardiology Task force (Cannon et al. J. Am. Coll. Cardiol. (2001) vol. 38 pp. 2114-30) in each panel was a pre-specified criteria for termination of the study.” for “used.”

[3] = test system: capacity of platelets to bind fibrinogen; settings: 25 μg/kg (high) bolus compared with 20 μg/kg bolus; 1 μM adenosine diphosphate; flow cytometry
Method: Blood was obtained after 5 minutes for analysis by flow cytometry. […] Blood for flow cytometry was anticoagulated with corn trypsin inhibitor, a specific inhibitor of coagulation factor XIIa without effect on other coagulation factors (Schneider et al., Circulation (1997) vol. 96 pp. 2877-83). […] For flow cytometry, samples were processed and platelets were fixed at each site. […] Light transmission aggregometry and rapid platelet function analyzer were performed with […] -chloromethyl ketone as the anticoagulant and flow cytometry was performed with blood anticoagulated with corn trypsin inhibitor.

platelet aggregation [4] = settings: patients; 10 μg/kg bolus followed by 0.15 μg/kg/min infusion; 15 to 60 minutes after bolus; monohydrochloride; cited from earlier work

Compound: CCCCS(=O)(=O)N[C@@H](Cc1ccc(OCCCCC2CCNCC2)cc1)C(=O)O [tirofiban hydrochloride, N-(butylsulfonyl)-O-[4-(4-piperidinyl)butyl]-L-tyrosine monohydrochloride]
- average extent of inhibition of platelet aggregation / % Inhibition of platelet aggregation 15-60 minutes after bolus injection (platelet aggregation [1]; 20 μg/kg bolus followed by 0.15 μg/kg/min infusion): 84-89%
- average extent of inhibition of platelet aggregation / % Inhibition of platelet aggregation 15-60 minutes after bolus injection (platelet aggregation [1]; 25 μg/kg bolus followed by 0.15 μg/kg/min infusion, listed as tirofiban): 92-95%
- average extent of inhibition of platelet aggregation / % Inhibition of platelet aggregation 15-60 minutes after bolus injection (platelet aggregation [1]; 25 μg/kg bolus followed by 0.15 μg/kg/min infusion): greater than 90%
- undesirable side effects ([2]; about 25 μg/kg bolus compared with conventional bolus): absence of increased undesirable side effects
- major bleeding episodes ([2]; 20 μg/kg bolus followed by 0.15 μg/kg/min infusion for 18-24 hours): No major bleeding episode occurred
- major bleeding episodes ([2]; 25 μg/kg bolus followed by 0.15 μg/kg/min infusion for 18-24 hours): No major bleeding episode occurred
- extent of inhibition of the capacity to bind fibrinogen [3]: greater
- average inhibition of maximal aggregation / % Inhibition of platelet aggregation 15-60 minutes after bolus injection (platelet aggregation [4]): 61-66%
